Assay results published in patent US20030118985A1, “Mouse monoclonal antibody (5-21-3) to human immunodeficiency virus gp41 protein” (priority 1997, published 2003).
“Also recorded” adds a separate entry of the source.

Columns and labels:
[1] = tested on: monoclonal antibody 10-15-63; assay: Immunoprecipitation of [125I] synthetic peptides by 10-15-63; type: binding, mouse; conditions: for SPECIFIC PRECIPITATION (CPM) by 10-15-63 / x-fold increase of specific over non-specific precipitation, 10-15-63: 10-15-63 10 μg/0.2 ml
Procedure: (§1) Synthetic peptides were radiolabeled with ^125I (Amersham) by the chloramine T method (N. M. Hunter, “Radioimmunoassay” in D. M. Weir, Ed., Handbook of Experimental Immunology, [Blackwell Scientific Publications, 1973]). Generally, 2-6 ul of 100 mCi/ml ^125I were added to 10-50 ug of peptide in PBS, pH 7.4. Approximately 10 ug of freshly prepared (1 mg/ml in PBS) chloramine T were added to the mixture maintained at 4° C. After 5 min., [^125I]peptide was separated from free ^125I by passage of the reaction mixture through a 3 ml (bed volume) column of Biogel P-6 or P-2, as required. Fractions (200 ul each) containing [^125I]peptide were pooled and diluted into PBS containing 20% fetal calf serum. Rough estimations of ^125I cpm bound to peptide were made by acid precipitation. An aliquot of labeled peptide was diluted into 1 ml of ice cold 50% trichloroacetic acid (TCA) overlaying a 0.45 um filter (made of mixed cellulose esters) set on a scintered glass filter connected to a vacuum apparatus. Precipitated protein was fixed onto the filter by application of vacuum, and filters were washed with ice-cold 50% TCA. Background cpm adhering non-specifically to the filter were estimated by repeating the procedure using a non-precipitating buffer. Amounts of peptide, ^125I, chloramine T, and composition of column eluting buffer were subject to change depending on conditions required to maintain solubility of each peptide.
(§2) Synthetic peptides radiolabeled with ^125I were diluted into PBS (pH 7.4) containing 0.1% Triton X-100 (or other detergents where indicated) and 1.0% BSA, to yield approximately 2.5-5×10^5 acid-precipitable cpm per 0.1 ml. Purified monoclonal IgG 5-21-3 and 10-15-63 were employed in the assay. Monoclonal antibodies were diluted into PBS containing 0.1% Triton X-100 (or other detergents where indicated), 1.0% BSA, and 2% normal mouse serum as a carrier immunoglobulin. Immune rabbit serum (anti-P58-130) was diluted appropriately into the same buffer except that normal rabbit serum (2%) was substituted for normal mouse serum as the carrier immunoglobulin. A reaction mixture comprising 0.1 ml [^125I] peptide (5×10^5 cpm/0.1 ml) and 0.1 ml diluted antibody was incubated 1 hr at 40° C., followed by addition of 0.1 ml of a precipitating antibody, either goat anti-mouse IgG, or goat anti-rabbit IgG, corresponding to the primary antibody. The reaction mixture was incubated 1 hr at 40° C. and then overnight at 4° C. […] Precipitation assays employing Protein A-Sepharose as the precipitating reagent were performed in a similar manner, except that normal sera were omitted from the reaction mixtures.

[2] = tested on: Rabbit (R) anti-P58-130 serum; assay: Immuno-dot blot of synthetic peptides with rabbit anti-P58-130 serum; type: binding; conditions: 2% serum
Description: (§3) The western Blot procedure described in Example 1 was employed for development of immuno-dot blots using synthetic peptides, except that synthetic peptides were fixed to nitrocellulose by direct application using Drummond lambda pipettes, and air dried prior to blocking with 20% fetal calf serum in PBS (pH 7.4).

[3] = tested on: monoclonal antibody 10-15-63; assay: Immuno-dot blot of synthetic peptides with 10-15-63; type: binding, mouse; conditions: 25 ug/ml 10-15-63
Description: as §3

[4] = tested on: monoclonal antibody 5-21-3; assay: Immunoprecipitation of [125I] synthetic peptides by 5-21-3; type: binding, mouse; conditions: for SPECIFIC PRECIPITATION (CPM) by 5-21-3 / x-fold increase of specific over non-specific precipitation, 5-21-3: 5-21-3 10 μg/0.2 ml
Procedure: as §1, §2

[5] = tested on: mouse (M) anti-rp41 serum; assay: Immuno-dot blot of synthetic peptides with mouse anti-rp41 serum; type: binding; conditions: 2% serum
Description: as §3

[6] = tested on: binding of antibody 5-21-3 to rp41; assay: Binding inhibition assay: peptides inhibit binding of 5-21-3 to rp41; parameters: species or system HIV I
Procedure: Additional evidence for the conformationl nature of the 5-21-3 epitope was obtained using binding inhibition studies, in which synthetic peptides were ranked for their ability to inhibit binding of 5-21-3 to rp41. First, the Fab dimer of an anti-gp41 monoclonal antibody was prepared by conventional methods (Goding et al., supra). Then 100 ul of a 1 mg/ml solution of the Fab dimer in bicarbonate buffer (pH 9.6) was coated onto Immulon II microtiter plates for 1 hr at 37° C. After washing with PBS containing 0.05% Tween 20, the plates were overcoated with 200 ul of 1.0% ovalbumin in bicarbonate buffer (pH 9.6) for 1 hr at 30° C. After washing, 100 ul of rp41 enriched E. coli lysate (as described in Example 3), diluted appropriately in PBS containing 0.05% Tween 20, were allowed to bind to the Fab dimer for 2 hr at 30° C. The plates were washed and stored at 4° C.
Intact monoclonal antibody 5-21-3 IgG (purified from tissue culture fluid supporting growth of the cloned cell line 5-21-3) was titrated against the bound rp41 on the plate, and an antibody concentration was selected which yielded an A492 value of 2.0-3.0. Usually, 0.4 pmol (0.06 ug) of 5-21-3 IgG per microtiter well was employed in these assays. Stock solutions of 5-21-3 IgG were prepared in PBS containing 0.1% Triton X-100 and 0.1% SDS. Dilutions of synthetic peptides were made in the same buffer (SDS was included in these experiments to keep peptides soluble at high concentrations).
The binding inhibition assay was performed by combining 0.15 ml of 1.2 ug/ml 5-21-3 antibody stock solution with 0.15 ml of peptide at a selected peptide concentration, and incubating the reaction mixture 1 hr at room temp. Then 0.1 ml aliquots of each reaction mixture were added to each of two wells in the microtiter tray. After a 1 hr incubation at room temp., the plates were washed, and HRPO conjugated Goat anti-mouse IgG Fc was added for 1 hr at room temp. The plates were washed, and addition of OPD for color development identified the relative amounts of 5-21-3 bound to rp41 in the microtiter wells. The reaction was stopped by addition of 100 ul of 1N H2SO4, and the plates were read on a Dynatech II microtiter plate reader.

[7] = tested on: Rabbit (R) anti-P58-130 serum; assay: Immunoprecipitation of [125I] synthetic peptides by rabbit anti-P58-130 serum; type: binding; conditions: for SPECIFIC PRECIPITATION (CPM) by RαP58-130 / x-fold increase of specific over non-specific precipitation, RαP58-130: rabbit anti-P58-130 serum 20 ul/0.2 ml
Procedure: as §1, §2

[8] = tested on: monoclonal antibody 5-21-3; assay: Immuno-dot blot of synthetic peptides with 5-21-3; type: binding, mouse; conditions: 25 ug/ml 5-21-3; peptide spotted on nitrocellulose
Description: as §3

[9] = detergent-rich buffer, Protein A-Sepharose
[10] = PBS, 0.1% Triton X-100, 1.0% BSA, carrier serum, second antibody precipitation
[11] = second antibody precipitation, vs normal mouse IgG

H-TVWGIKELQARILAVERYLKDQQLLGIWGCSGKLICTTAVPWNASWSNKSLEQIWNNMTWMEWDREINNYTSL-OH [P58-130]
SPECIFIC PRECIPITATION (CPM) by 10-15-63 [1, 9]: 0 CPM
x-fold increase of specific over non-specific precipitation, 10-15-63 [1, 9]: (<1) x-fold
immuno-dot blot reactivity with rabbit anti-P58-130 serum [2]: Strong reactivities
immuno-dot blot reactivity with 10-15-63 [3]: Little or no reactivity
binding of [125I]peptide by 5-21-3 (immunoprecipitation), in words [4]: unable to bind
SPECIFIC PRECIPITATION (CPM) by 5-21-3 ([4]; detergent-rich buffer (0.1% Triton X-100, 1.0% sodium deoxycholate, 0.1% SDS), Protein A-Sepharose): 0 CPM
x-fold increase of specific over non-specific precipitation, 5-21-3 [4, 9]: (<1) x-fold
immuno-dot blot reactivity with mouse anti-rp41 serum [5]: Strong reactivities
inhibition of 5-21-3 binding to rp41, in words [6]: no detectable inhibition
precipitation of [125I]peptide by rabbit anti-P58-130, in words [7]: strong precipitator
SPECIFIC PRECIPITATION (CPM) by RαP58-130 [7, 9]: 286,722 CPM
x-fold increase of specific over non-specific precipitation, RαP58-130 [7, 9]: (32) x-fold
immuno-dot blot reactivity with 5-21-3 [8]: did not react

ARILAVERYLKDQQLLGIWGCSGKLICTTAVPWNASWSNKSLEQIWNNMTWMEWDREINNYSLIHSLIEESQNQQEKNELLELNK [P67-154]
SPECIFIC PRECIPITATION (CPM) ([1]; 10-15-63 1.0 μg/ml final): 0 CPM
x-fold increase of specific over non-specific precipitation ([1]; 10-15-63 1.0 μg/ml final): (0) x-fold
SPECIFIC PRECIPITATION (CPM) by 10-15-63 [1, 10]: 9713 CPM
x-fold increase of specific over non-specific precipitation, 10-15-63 [1, 11]: (1.3) x-fold
SPECIFIC PRECIPITATION (CPM) ([1]; 10-15-63 10.0 μg/ml final): 0 CPM
x-fold increase of specific over non-specific precipitation ([1]; 10-15-63 10.0 μg/ml final): (0) x-fold
SPECIFIC PRECIPITATION (CPM) ([1]; 10-15-63 100.0 μg/ml final): 0 CPM
x-fold increase of specific over non-specific precipitation ([1]; 10-15-63 100.0 μg/ml final): (0) x-fold
immuno-dot blot reactivity with rabbit anti-P58-130 serum [2]: Strong reactivities
immuno-dot blot reactivity with 10-15-63 [3]: Little or no reactivity
binding of [125I]peptide by 5-21-3 (immunoprecipitation), in words [4]: readily bound
SPECIFIC PRECIPITATION (CPM) ([4]; 5-21-3 1.0 μg/ml final): 165,781 CPM
x-fold increase of specific over non-specific precipitation ([4]; 5-21-3 1.0 μg/ml final): (3.6) x-fold
SPECIFIC PRECIPITATION (CPM) by 5-21-3 [4, 10]: 479,207 CPM
x-fold increase of specific over non-specific precipitation, 5-21-3 [4, 11]: (16) x-fold
SPECIFIC PRECIPITATION (CPM) ([4]; 5-21-3 10.0 μg/ml final): 441,887 CPM
x-fold increase of specific over non-specific precipitation ([4]; 5-21-3 10.0 μg/ml final): (8.5 x-fold
SPECIFIC PRECIPITATION (CPM) ([4]; 5-21-3 100.0 μg/ml final): 659,045 CPM
x-fold increase of specific over non-specific precipitation ([4]; 5-21-3 100.0 μg/ml final): (8.0) x-fold
5-21-3 concentration required to demonstrate binding of the peptide ([4]; immunoprecipitation, Table 5): ≤ 1 µg/mL
immuno-dot blot reactivity with mouse anti-rp41 serum [5]: Strong reactivities
inhibition of 5-21-3 binding to rp41, in words [6]: potent inhibitor; also recorded: most potent inhibitor
Molar Ratio at 50% inhibition of 5-21-3 binding ([6]; mean of two experiments, 0.4 pmol 5-21-3 IgG per well): 72.7 pmoles peptide/pmoles 5-21-3
precipitation of [125I]peptide by rabbit anti-P58-130, in words [7]: strong precipitator
SPECIFIC PRECIPITATION (CPM) by RαP58-130 ([7]; second antibody precipitation): 479,343 CPM
x-fold increase of specific over non-specific precipitation, RαP58-130 ([7]; second antibody precipitation, vs normal rabbit serum): (4.4) x-fold
immuno-dot blot reactivity with 5-21-3 [8]: very strong reaction
